The experiment deals with T1, recombinant human PAI-1 (Homo sapiens, UniProt P05121).
T1 construct: purchased Molecular Innovations, Inc
In words: Test Example 2: human PAI-1 inhibitory activity (tPA fluorogenic substrate, pH 7.4 HEPES buffer). It is filed as biochemical. The conditions noted are these: for inhibition at 3 µM: read-out: Inhibition Rate of PAI-1 Activity (%). The method, then: 0.1 M HEPES, 0.1 M NaCl. 1 mM EDTA. 0.1% Polyethylene glycol 8,000 (Hampton Research Corporation),
2 mM Dimethyldecylphoshine oxide [Apo-10] (Fluka Corporation)

Setting [1] is: human PAI-1, calculated from the inhibition rates.
Where [2] appears, read: human PAI-1, compound concentration 0.1 μM.
[3] abbreviates: human PAI-1, compound concentration 0.3 μM.
The mark [4] stands for this setting: human PAI-1, compound concentration 1 μM.
Where [5] appears, read: human PAI-1, compound concentration 3 μM.

Read-outs that look alike come from different tables or passages of the source.

T1 sequence (P05121 24-402): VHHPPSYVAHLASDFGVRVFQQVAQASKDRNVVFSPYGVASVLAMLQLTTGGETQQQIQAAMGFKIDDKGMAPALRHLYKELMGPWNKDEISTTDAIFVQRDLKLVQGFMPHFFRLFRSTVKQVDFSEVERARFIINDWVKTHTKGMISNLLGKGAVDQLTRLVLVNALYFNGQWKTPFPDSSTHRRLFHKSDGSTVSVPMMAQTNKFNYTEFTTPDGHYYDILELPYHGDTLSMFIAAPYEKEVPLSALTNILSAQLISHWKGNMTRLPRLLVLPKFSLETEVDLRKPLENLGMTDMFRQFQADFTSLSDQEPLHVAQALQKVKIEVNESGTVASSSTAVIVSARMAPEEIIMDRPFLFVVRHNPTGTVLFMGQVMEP

Take `CC(C)(Oc1c(Oc2ccc(C(C)(C)C)cc2)cccc1-c1ccc(OC(F)(F)F)cc1)C(=O)O` [Compound 251]: the IC50 under setting [1] is 1350 nM.

With `CCCCCOc1cc(-c2ccc(OC(F)(F)F)cc2)cc(OCc2ccc(C(C)(C)C)cc2)c1OCC(=O)O` [Compound 301], the IC50 under setting [1] is 470 nM. As for `CC(C)(C)c1ccc(Oc2ccc(-c3ccc(OC(F)(F)F)cc3)cc2OCC(=O)O)cc1` [Compound 302], under setting [1], the IC50 is 1700 nM. Same read-out and setting: with `CCCCC(Oc1cc(-c2ccc(OC(F)(F)F)cc2)ccc1Oc1ccc(C(C)(C)C)cc1)C(=O)O` (stereo not shown) [Compound 303] the figure was 540 nM; with `CC(C)(C)c1ccc(COc2cc(-c3ccc(OC(F)(F)F)cc3)ccc2OCC(=O)O)cc1` [Compound 304], 1230 nM. On the same count and under the same terms, with `CCCCC(Oc1ccc(-c2ccc(OC(F)(F)F)cc2)cc1Oc1ccc(C(C)(C)C)cc1)C(=O)O` (stereo not shown) [Compound 305] the figure was 940 nM; with `CCCCC(Oc1cc(-c2ccc(OC(F)(F)F)cc2)ccc1OCCCCc1ccccc1)C(=O)O` (stereo not shown) [Compound 306], 880 nM; with `CCCCC(Oc1cc(-c2ccc(OC(F)(F)F)cc2)ccc1Oc1ccccc1)C(=O)O` (stereo not shown) [Compound 307], 1530 nM.

As for `CCCCC(Oc1cc(Oc2ccc(OC(F)(F)F)cc2)ccc1OCc1ccc(C(C)(C)C)cc1)C(=O)O` (stereo not shown) [Compound 308], the IC50 under setting [1] is 670 nM. Same read-out and setting: the value for `CCCCC(Oc1cc(Oc2ccc(OC(F)(F)F)cc2)ccc1OCCCCc1ccccc1)C(=O)O` (stereo not shown) [Compound 309] was 660 nM; that for `CCCCC(Oc1ccc(-c2ccc(OC(F)(F)F)cc2)cc1OCc1ccc(C(C)(C)C)cc1)C(=O)O` (stereo not shown) [Compound 310] was 710 nM; that for `CCCCC(Oc1ccc(-c2ccc(OC(F)(F)F)cc2)cc1OCCCCc1ccccc1)C(=O)O` (stereo not shown) [Compound 311] was 580 nM.

In the case of `CCCCC(Oc1cc(Oc2ccc(OC(F)(F)F)cc2)ccc1Oc1ccc(C(C)(C)C)cc1)C(=O)O` (stereo not shown) [Compound 312], the IC50 under setting [1] is 530 nM. With `CCCCC(Oc1cc(-c2ccc(OC(F)(F)F)cc2)ccc1OCc1ccc(C(C)(C)C)cc1)C(=O)O` (stereo not shown) [Compound 313], the IC50 under setting [1] was 980 nM. In the case of `CC(C)(C)c1ccc(Oc2ccc(-c3cccc(C(F)(F)F)c3)cc2OCC(=O)O)cc1` [Compound 314], under setting [1], the IC50 is 1860 nM. With `CC(C)(C)c1ccc(Oc2cc(-c3cccc(C(F)(F)F)c3)ccc2OCC(=O)O)cc1` [Compound 315], the inhibition at 3 µM was above 99%. Moreover, the concentration for half-maximal inhibition (IC50) under setting [1] is 850 nM. Regarding `Cc1cccc(-c2ccc(Oc3ccc(C(C)(C)C)cc3)c(OCC(=O)O)c2)c1` [Compound 316], the IC50 under setting [1] was 1780 nM. Turning to `CCCCC(Oc1cc(-c2cccc(C)c2)ccc1Oc1ccc(C(C)(C)C)cc1)C(=O)O` (stereo not shown) [Compound 317], the IC50 under setting [1] was 650 nM.

In the case of `CCCCC(Oc1cc(-c2cccc(C(F)(F)F)c2)ccc1Oc1ccc(C(C)(C)C)cc1)C(=O)O` (stereo not shown) [Compound 318], the IC50 under setting [1] was 580 nM. Still for that read-out and setting: the value for `Cc1cccc(-c2ccc(OCC(=O)O)c(Oc3ccc(C(C)(C)C)cc3)c2)c1` [Compound 319] was 2100 nM; that for `CCCCC(Oc1ccc(-c2cccc(C(F)(F)F)c2)cc1Oc1ccc(C(C)(C)C)cc1)C(=O)O` (stereo not shown) [Compound 320] was 740 nM. Still for that read-out and setting: the value for `CCCCC(Oc1ccc(-c2cccc(C)c2)cc1Oc1ccc(C(C)(C)C)cc1)C(=O)O` (stereo not shown) [Compound 321] was 600 nM; that for `CCCCCCC(Oc1cc(-c2ccc(OC(F)(F)F)cc2)ccc1Oc1ccccc1)C(=O)O` (stereo not shown) [Compound 322] was 740 nM. On the same count and under the same terms, the value for `CCCCCCC(Oc1cc(-c2ccc(OC(F)(F)F)cc2)ccc1Oc1ccc(C(C)(C)C)cc1)C(=O)O` (stereo not shown) [Compound 323] was 490 nM; that for `CCCCC(Oc1cc(-c2ccc(OC(F)(F)F)cc2)ccc1OCCCCc1ccc(F)cc1)C(=O)O` (stereo not shown) [Compound 324] was 830 nM; that for `CCCCC(Oc1cc(-c2ccc(OC(F)(F)F)cc2)ccc1OCCCCc1ccc(Cl)cc1)C(=O)O` (stereo not shown) [Compound 325] was 580 nM. Regarding `CCCCCCC(Oc1cc(-c2ccc(OC(F)(F)F)cc2)ccc1Oc1ccc(OC(F)(F)F)cc1)C(=O)O` (stereo not shown) [Compound 326], the 50% inhibitory concentration (IC50) under setting [1] is 330 nM. On the same count and under the same terms, with `CCCCCCC(Oc1cc(-c2ccc(OC(F)(F)F)cc2)ccc1Oc1ccc(C(F)(F)F)cc1)C(=O)O` (stereo not shown) [Compound 327] the figure was 420 nM.

As for `CC(C)(C)c1ccc(Oc2ccc(-c3ccc(OC(F)(F)F)cc3)cc2OCC(=O)O)cc1` [Compound 328], the IC50 under setting [1] is 1460 nM. Moreover, the “Inhibition Rate of PAI-1 Activity (%)” value runs as follows: under setting [2], 0%; under setting [3], 14%; under setting [4], 30%; under setting [5], above 99%.

With `CC(C)(C)c1ccc(Oc2ccc(-c3cccc(OC(F)(F)F)c3)cc2OCC(=O)O)cc1` [Compound 329], under setting [1], the IC50 is 1720 nM.

In the case of `CC(C)(C)c1ccc(Oc2cc(-c3ccc(C(F)(F)F)cc3)ccc2OCC(=O)O)cc1` [Compound 330], under setting [1], the IC50 was 1030 nM.

Regarding `CC(C)(C)c1ccc(Oc2cc(-c3cccc(OC(F)(F)F)c3)ccc2OCC(=O)O)cc1` [Compound 331], the IC50 under setting [1] was 790 nM. In the case of `CC(C)(C)c1ccc(Oc2cc(-c3cccc(C(F)(F)F)c3)ccc2CCC(=O)O)cc1` [Compound 332], the inhibition at 3 µM is above 99%. In addition, the IC50 under setting [1] is 1470 nM. Turning to `CC(C)c1ccc(Oc2cc(-c3ccc(OC(F)(F)F)cc3)ccc2OCC(=O)O)cc1` [Compound 333], the IC50 under setting [1] was 1720 nM. Same read-out and setting: with `CC(C)(C)c1ccc(Oc2cc(-c3ccc(OC(F)(F)F)cc3)ccc2CC(=O)O)cc1` [Compound 334] the figure was 1910 nM. Turning to `CC(C)(C)c1cccc(Oc2cc(-c3ccc(OC(F)(F)F)cc3)ccc2/C=C/C(=O)O)c1` [Compound 335], the inhibition at 3 µM was above 99%. For the same molecule, under setting [1], the IC50 was 740 nM.

Turning to `CC(C)(C)c1cccc(Oc2cc(-c3ccc(OC(F)(F)F)cc3)ccc2CCC(=O)O)c1` [Compound 336], the inhibition at 3 µM is above 99%. The IC50 under setting [1] is 1080 nM.

Take `O=C(O)COc1ccc(-c2ccc(OC(F)(F)F)cc2)cc1OCCCCc1ccccc1` [Compound 337]: the IC50 under setting [1] was 2020 nM. Still for that read-out and setting: the value for `CC(C)(C)OCCOc1ccc(-c2ccc(OC(F)(F)F)cc2)cc1N(CCCCc1ccccc1)C(=O)C(=O)O` [Compound 351] was 1950 nM; that for `CCCCCCCOc1ccc(-c2ccc(OC(F)(F)F)cc2)cc1N(CCCCc1ccccc1)C(=O)C(=O)O` [Compound 352] was 740 nM; that for `CCCCCCCCOc1ccc(-c2ccc(OC(F)(F)F)cc2)cc1N(CCCCc1ccccc1)C(=O)C(=O)O` [Compound 353] was 510 nM. The same measure, in the same setting: with `O=C(O)C(=O)N(CCCCc1ccccc1)c1cc(-c2ccc(OC(F)(F)F)cc2)ccc1OCCCCc1ccccc1` [Compound 354] the figure was 560 nM; with `O=C(O)C(=O)N(CCCCc1ccccc1)c1cc(-c2ccc(OC(F)(F)F)cc2)ccc1OCCCC1CCCC1` [Compound 355], 640 nM. Consider `CCCCCOc1ccc(-c2ccc(OC(F)(F)F)cc2)cc1N(CCCOc1ccccc1)C(=O)C(=O)O` [Compound 356], for which the inhibition at 3 µM is above 99%. Under setting [1], the IC50 was 930 nM. On to `CCCCCOc1ccc(-c2ccc(OC(F)(F)F)cc2)cc1N(CCCSc1ccccc1)C(=O)C(=O)O` [Compound 357], for which the inhibition at 3 µM is above 99%. For the same molecule, the concentration for half-maximal inhibition (IC50) under setting [1] is 770 nM. On to `CCCCCN(C(=O)C(=O)O)c1cc(-c2ccc(OC(F)(F)F)cc2)ccc1OCCCCc1ccccc1` [Compound 358], for which the half-maximal inhibitory concentration (IC50) under setting [1] was 900 nM. Consider `CCCCCOc1ccc(-c2ccc(F)cc2)cc1N(CCCCc1ccccc1)C(=O)C(=O)O` [Compound 359], for which the IC50 was 1640 nM. Same read-out and setting: with `CCCCCOc1ccc(-c2ccccc2)cc1N(CCCCc1ccccc1)C(=O)C(=O)O` [Compound 360] the figure was 1590 nM; with `CCCCCOc1ccc(-c2ccc(Cl)cc2)cc1N(CCCCc1ccccc1)C(=O)C(=O)O` [Compound 361], 830 nM. Consider `CCCCCOc1cc(Oc2ccc(OC(F)(F)F)cc2)ccc1N(CCCCc1ccccc1)C(=O)C(=O)O` [Compound 362], for which the IC50 was 840 nM and the inhibition at 3 µM is above 99%.

Turning to `CCCCCOc1ccc(Oc2ccc(OC(F)(F)F)cc2)cc1N(CCCCc1ccccc1)C(=O)C(=O)O` [Compound 363], the IC50 came to 830 nM and the inhibition at 3 µM is above 99%.

Consider `CCCCCCCCCOc1ccc(-c2ccc(OC(F)(F)F)cc2)cc1N(CCCCc1ccccc1)C(=O)C(=O)O` [Compound 364], for which the IC50 came out at 110 nM.

Consider `CCCCCCCCCCOc1ccc(-c2ccc(OC(F)(F)F)cc2)cc1N(CCCCc1ccccc1)C(=O)C(=O)O` [Compound 365], for which the IC50 worked out at 110 nM.

`CCCCCOc1ccc(-c2ccc(OC(F)(F)F)cc2)cc1N(CCCCC)C(=O)C(=O)O` [Compound 366]: the IC50 is 1060 nM. Still for that read-out and setting: with `CCCCCOc1cc(-c2ccc(OC(F)(F)F)cc2)ccc1N(CCCCc1ccccc1)C(=O)C(=O)O` [Compound 367] the figure was 900 nM; with `O=C(O)C(=O)N(CCCCc1ccccc1)c1cc(-c2ccc(OC(F)(F)F)cc2)ccc1OC1CCCCC1` [Compound 368], 450 nM. Same read-out and setting: with `CCC(CC)Oc1ccc(-c2ccc(OC(F)(F)F)cc2)cc1N(CCCCc1ccccc1)C(=O)C(=O)O` [Compound 369] the figure was 690 nM; with `O=C(O)C(=O)N(CCCCc1ccccc1)c1cc(-c2ccc(OC(F)(F)F)cc2)ccc1N1CCCCC1` [Compound 370], 940 nM.

In the case of `CCCCCCCOc1ccc(-c2ccc(OC(F)(F)F)cc2)cc1N(CCCCc1ccccc1)C(=O)C(=O)O` [Compound 371], for the setting “concentration that inhibits 50% of the human PAI-1 activity, calculated from Test Example 2 inhibition rates”, the half-inhibitory concentration (IC50) was 690 nM. Besides, the “Inhibition Rate of PAI-1 Activity (%)” value runs as follows: under setting [2], 10%; under setting [3], 17%; under setting [4], 93%; under setting [5], 91%.

As to `CCCCCOc1cc(-c2ccc(OC(F)(F)F)cc2)cc(N(CCCCc2ccccc2)C(=O)C(=O)O)c1OCCCCC` [Compound 372], the IC50 is 460 nM.

Broadly, the IC50 is the concentration that gives 50% inhibition. The term inhibition denotes the share of the control response that was lost under treatment.

Values taken from patent US8633245B2, “PAI-1 inhibitor” (Institute of Medicinal Molecular Design, Inc., priority 2008, dated 2014).
